From patent US6391911B1, “Coadministration of lucanthone and radiation for treatment of cancer” (priority 1999, dated 2002)
“Also recorded” adds a separate entry of the source. Where a name gives a salt, the structure may show the parent alone. Starred links: 1 amine or outer side, 2 acyl side, 3 side chain; linkers in the order of their positions; H or OH if unused. Positions of bridges follow the written chain, without caps; N, C: chain ends. Non-standard residues stand in square brackets, D forms with d. Residues, ends and D or L forms follow the SMILES beside them. Chains are numbered I, II in the order given. Actinocin(9to1) = Cc1c2oc3c(C)ccc(C(=O)[*:1])c3nc-2c(C(=O)[*:2])c(N)c1=O; NMeV = CN[C@H](C(=O)O)C(C)C; Sar = CNCC(=O)O

Columns and labels:
[1] = systemic chemotherapy; cited from earlier work
[2] = reason for use as imaging control; cited from earlier work
[3] = Gamma camera imaging of radiolabeled rat models; type: in vivo; conditions: rats; intravenous radiotracer; pinhole collimator
Procedure: Rats were injected with ^125I-labeled lucanthone and ^99mTc-pertechnetate. Lucanthone hydrochloride used for ^125I labeling was 97.5% pure by HPLC mass spectroscopy (Sterling Winthrop Research Institute, R009CJ). ^125I labeled lucanthone was prepared by a modification of the chloramine T method, to be described in detail in a separate publication [Moran JK, Li Y, Deng HF, Labeling and biodistribution of lucanthone (in preparation)]. The product identity was confirmed by thin layer chromatography. ^99mTc-pertechnetate was obtained from a conventional laboratory supplier. The image acquisitions were performed using a Picker Dyna Camera 4C using Nuclear MAC imaging software running on a Power MAC 8100/80 AV computer. Images were obtained using a pinhole collimator with a collimator to rat distance of 6.5 cm.
Each animal was imaged using ^99mTc-pertechnetate (3.7 MBq). […] Therefore, a photopenic area in the image corresponds to the location of the rat brain.
Twenty-four hours following administration of ^99mTc-pertechnetate, ^125I lucanthone was administered to each test animal. Images were acquired in the left lateral position every 10 min after intravenous administration of 1.1 MBq of ^125I lucanthone.

[4] = Tolerability in human clinical studies; type: in vivo
Procedure: Cancer patients were administered lucanthone hydrochloride in a total dose of 10 mg/Kg per day. The patients were given the drug in three divided doses in order to maintain blood and tissue levels. […] Lucanthone hydrochloride 250 mg tablets for clinical use [GRH/0/1581] were a gift of the Wellcome Foundation. Nausea and other side effects were not observed when patients received 10 mg/Kg.
Standard whole brain radiation, 30 Gy with an 8 MeV linear accelerator in ten equal doses over 2 weeks, was given in conjunction with lucanthone at 10 mg/Kg in three doses/day. Patients were assigned to radiation alone or radiation and lucanthone from a table of random numbers. Tumor sizes for each patient were determined before and after therapy independently by two neuroradiologists who had no knowledge of the protocol assignments.
Both treatments were omitted on weekends and were stopped after ten treatment days. […] No other chemotherapy was given during this time, except steroids, which is standard treatment with patients with brain metastases.

[5] = Tissue distribution of ^3H lucanthone in tumor-bearing mice; type: in vivo, C3H-HeHa mice
Procedure: Ten six-week-old 18-20 gram female C3H-HeHa mice obtained from West Seneca Laboratories (West Seneca, N.Y.) were injected subcutaneously in the right nipple line with 1.4×10^6 viable C3H-BA mammary adenocarcinoma cells. With such inocula, 1-2-mm tumors were detectable within 3 days. If allowed to grow, they killed the mice in 36-38 days. This highly invasive tumor could grow rapidly from inocula as low as 10^4 cells.
In order to minimize the influence of tumor size on drug distribution, drug was administered at various times during the course of tumor growth. Each day, from the seventh to eleventh day after injection, two mice were injected intraperitoneally with 1.27 mg^3 H lucanthone methanesulfonate. Lucanthone methanesulfonate, after being labeled by tritium exchange of hydrogen, was 96%-99% pure by thin layer chromatography. Before injection in mice, the specific radioactivity of ^3H lucanthone, originally 135 MBq/mg, was reduced to 67.5 MBq/mg by dilution with unlabeled lucanthone methanesulfonate. The total dose of radioactivity was 8.74 MBq (236 μCi) in 0.44 ml. All mice were sacrificed on the twelfth day, at which time the tumors were all approximately the same size, 7-12 mm in greatest diameter.
Distribution of tritium-labeled material in tissues represents lucanthone and its metabolites. Following sacrifice by cervical dislocation, the wet weight of samples of various organ or tumor tissue was determined immediately. Samples (about 50 mg each) were placed in glass scintillation vials with metal foil-lined caps. An alkaline tissue solubilizer, Protosol (DuPont—NEN), was added for digestion; radioactivity was determined by liquid scintillation techniques, as recommended by the manufacturer. Quench corrections were made for each sample to avoid interference from colored substances in individual samples. Hair was shaved from the skin samples to avoid its contribution to the weight of the sample.

COc1cc([C@@H]2c3cc4c(cc3[C@@H](O[C@@H]3O[C@@H]5CO[C@@H](C)O[C@H]5[C@H](O)[C@H]3O)[C@H]3COC(=O)[C@H]23)OCO4)cc(OC)c1O [etoposide]
Crossing of the blood-brain barrier [1]: fail to cross the blood-brain barrier in useful amounts; also recorded: crosses the blood-brain barrier poorly

^99mTc-pertechnetate
Crossing of the blood-brain barrier (known property) [2]: known not to cross the blood-brain barrier | Photopenic area at the location of the brain in gamma camera scans [3]: show a photopenic area in the animal's head

CCN(CC)CCNc1ccc(C)c2sc3ccccc3c(=O)c12 [lucanthone hydrochloride]
Tolerability of total dose ([4]; cancer patients, 10 mg/Kg per day in three divided doses): well tolerated | Nausea and other side effects ([4]; patients received 10 mg/Kg): not observed

Cc1c2oc3c(C)ccc(C(=O)N[C@@H]4C(=O)N[C@H](C(C)C)C(=O)N5CCC[C@H]5C(=O)N(C)CC(=O)N(C)[C@@H](C(C)C)C(=O)O[C@@H]4C)c3nc-2c(C(=O)N[C@@H]2C(=O)N[C@H](C(C)C)C(=O)N3CCC[C@H]3C(=O)N(C)CC(=O)N(C)[C@@H](C(C)C)C(=O)O[C@@H]2C)c(N)c1=O [actinomycin D] (I: T[dV]P[Sar][NMeV] / II: T[dV]P[Sar][NMeV]; ester I:1-I:C, II:1-II:C; linker I:N-II:N via Actinocin(9to1))
Crossing of the blood-brain barrier [1]: fail to cross the blood-brain barrier in useful amounts

CCN(CC)CCNc1ccc(C)c2sc3ccccc3c(=O)c12 [^3H lucanthone]
^3H label in tumor tissue relative to skin and muscle ([5]; first and second days following intraperitoneal drug injection, C3H-BA mammary adenocarcinoma): Enrichment of the ^3H label was detected in tumor tissue relative to skin and muscle | ^3H lucanthone uptake and removal in brain, lung and spleen ([5]; intraperitoneal injection): little difference | ^3H label concentration in livers and kidneys compared with tumor ([5]; intraperitoneal injection, principal excretory organs): higher concentrations were found than in the tumor
